Molecules are shown by their SMILES.

This is an account of results in article PMC5218480 (PLoS ONE, 2017).

This test has as its system MV-4-11 cells. Nature of the test: Gene expression microarray analysis (Affymetrix PrimeView) and GSEA. The format is cell-based, human. Set-up: RFU PODN (11730768_x_at) / Fold change /veh PODN (11730768_x_at) / RFU LINC00158 (11744669_a_at) / Fold change /veh LINC00158 (11744669_a_at) / RFU DUSP10 (11751237_a_at) / Fold change /veh DUSP10 (11751237_a_at) / RFU ID3 (11757404_x_at) / Fold change /veh ID3 (11757404_x_at) / RFU PLEKHG5 (11737974_s_at) / Fold change /veh PLEKHG5 (11737974_s_at) / RFU LRRC4B (11730491_at) / Fold change /veh LRRC4B (11730491_at) / RFU GIMAP4 (11747438_a_at) / Fold change /veh GIMAP4 (11747438_a_at) / RFU KRT8 (11758183_x_at) / Fold change /veh KRT8 (11758183_x_at) / RFU CNN1 (11734310_a_at) / Fold change /veh CNN1 (11734310_a_at) / RFU VPS37D (11726825_at) / Fold change /veh VPS37D (11726825_at) / RFU C10orf10 (11716522_x_at) / Fold change /veh C10orf10 (11716522_x_at) / RFU KIR2DL2 /// KIR2DL4 /// KIR2DL5A /// KIR2DL5B /// KIR2DS1 /// KIR2DS2 /// KIR2DS3 /// KIR2DS4 /// KIR3DL3 /// KIR3DL3 /// KIR3DS1 (11738374_at) / Fold change /veh KIR2DL2 /// KIR2DL4 /// KIR2DL5A /// KIR2DL5B /// KIR2DS1 /// KIR2DS2 /// KIR2DS3 /// KIR2DS4 /// KIR3DL3 /// KIR3DL3 /// KIR3DS1 (11738374_at) / RFU C1QL1 (11718748_at) / Fold change /veh C1QL1 (11718748_at) / RFU TMPRSS4 (11747572_a_at) / Fold change /veh TMPRSS4 (11747572_a_at) / RFU HAMP (11756126_x_at) / Fold change /veh HAMP (11756126_x_at) / RFU RNFT2 (11725882_a_at) / Fold change /veh RNFT2 (11725882_a_at) / RFU NR4A2 (11747474_a_at) / Fold change /veh NR4A2 (11747474_a_at) / RFU ABCC12 (11746883_a_at) / Fold change /veh ABCC12 (11746883_a_at) / RFU TMEM136 (11760407_x_at) / Fold change /veh TMEM136 (11760407_x_at) / RFU CLDN22 /// WWC2 (11732394_at) / Fold change /veh CLDN22 /// WWC2 (11732394_at) / RFU HLA-DPB1 (11760878_x_at) / Fold change /veh HLA-DPB1 (11760878_x_at) / RFU SPINT1 (11716480_a_at) / Fold change /veh SPINT1 (11716480_a_at) / RFU GAP43 (11754022_s_at) / Fold change /veh GAP43 (11754022_s_at) / RFU A4GNT (11735810_at) / Fold change /veh A4GNT (11735810_at) / RFU PRB3 (11715151_x_at) / Fold change /veh PRB3 (11715151_x_at) / RFU TUBB4B (11761932_at) / Fold change /veh TUBB4B (11761932_at) / RFU CAPN14 (11732068_a_at) / Fold change /veh CAPN14 (11732068_a_at) / RFU TMCC2 (11721928_a_at) / Fold change /veh TMCC2 (11721928_a_at) / RFU IRGQ (11745062_a_at) / Fold change /veh IRGQ (11745062_a_at) / RFU FAM174B (11720279_a_at) / Fold change /veh FAM174B (11720279_a_at) / RFU TMPRSS4 (11748680_a_at) / Fold change /veh TMPRSS4 (11748680_a_at) / RFU FAM212B (11763350_a_at) / Fold change /veh FAM212B (11763350_a_at) / RFU PLEKHG5 (11743358_a_at) / Fold change /veh PLEKHG5 (11743358_a_at) / RFU ZSCAN30 (11745921_a_at) / Fold change /veh ZSCAN30 (11745921_a_at) / RFU CMKLR1 (11741424_a_at) / Fold change /veh CMKLR1 (11741424_a_at) / RFU LOC101060620 /// MAPK8IP1 (11723275_at) / Fold change /veh LOC101060620 /// MAPK8IP1 (11723275_at) / RFU SPTSSB (11747773_x_at) / Fold change /veh SPTSSB (11747773_x_at) / RFU PRSS12 (11739890_at) / Fold change /veh PRSS12 (11739890_at) / RFU BIN1 (11741810_x_at) / Fold change /veh BIN1 (11741810_x_at) / RFU WNT11 (11732464_a_at) / Fold change /veh WNT11 (11732464_a_at) / RFU C10orf10 (11716521_a_at) / Fold change /veh C10orf10 (11716521_a_at) / RFU C5orf56 (11738089_at) / Fold change /veh C5orf56 (11738089_at) / RFU CYB561 (11721691_x_at) / Fold change /veh CYB561 (11721691_x_at) / RFU ANKRD19P (11752326_a_at) / Fold change /veh ANKRD19P (11752326_a_at) / RFU OR2T12 /// OR2T33 /// OR2T8 (11738714_s_at) / Fold change /veh OR2T12 /// OR2T33 /// OR2T8 (11738714_s_at) / RFU VCAN (11748164_a_at) / Fold change /veh VCAN (11748164_a_at) / RFU JSRP1 (11732532_at) / Fold change /veh JSRP1 (11732532_at) / RFU KRTAP10-11 (11738290_x_at) / Fold change /veh KRTAP10-11 (11738290_x_at) / RFU MYO3A (11730013_a_at) / Fold change /veh MYO3A (11730013_a_at) / RFU EBF3 (11725865_a_at) / Fold change /veh EBF3 (11725865_a_at) / RFU CAMK2N1 (11719241_x_at) / Fold change /veh CAMK2N1 (11719241_x_at) / RFU C5orf56 (11738088_a_at) / Fold change /veh C5orf56 (11738088_a_at) / RFU OLFML3 (11715873_a_at) / Fold change /veh OLFML3 (11715873_a_at) / RFU LOC100653217 /// NTM (11731650_a_at) / Fold change /veh LOC100653217 /// NTM (11731650_a_at) / RFU MAPK11 (11762145_a_at) / Fold change /veh MAPK11 (11762145_a_at) / RFU FIZ1 (11724087_x_at) / Fold change /veh FIZ1 (11724087_x_at) / RFU OASL (11726364_x_at) / Fold change /veh OASL (11726364_x_at) / RFU SOX15 (11748057_x_at) / Fold change /veh SOX15 (11748057_x_at) / RFU CD79A (11719716_a_at) / Fold change /veh CD79A (11719716_a_at) / RFU HIST1H1D (11736915_at) / Fold change /veh HIST1H1D (11736915_at) / RFU CASKIN2 (11723855_a_at) / Fold change /veh CASKIN2 (11723855_a_at) / RFU LOC730098 (11760151_x_at) / Fold change /veh LOC730098 (11760151_x_at) / RFU OR4N2 (11742367_at) / Fold change /veh OR4N2 (11742367_at) / RFU PRRT2 (11749266_a_at) / Fold change /veh PRRT2 (11749266_a_at) / RFU SNX32 (11753110_a_at) / Fold change /veh SNX32 (11753110_a_at) / RFU CDHR5 (11726645_a_at) / Fold change /veh CDHR5 (11726645_a_at) / RFU RCAN1 (11760418_a_at) / Fold change /veh RCAN1 (11760418_a_at) / RFU FAM167A (11723789_a_at) / Fold change /veh FAM167A (11723789_a_at) / RFU FAM26E (11764081_at) / Fold change /veh FAM26E (11764081_at) / RFU ISYNA1 (11749810_s_at) / Fold change /veh ISYNA1 (11749810_s_at) / RFU ACY1 (11761880_at) / Fold change /veh ACY1 (11761880_at) / RFU 11764098_at / Fold change /veh 11764098_at / RFU SAMD14 (11745864_x_at) / Fold change /veh SAMD14 (11745864_x_at) / RFU NPB (11741838_a_at) / Fold change /veh NPB (11741838_a_at) / RFU TMPRSS6 (11731388_a_at) / Fold change /veh TMPRSS6 (11731388_a_at) / RFU KRTAP10-2 (11738614_at) / Fold change /veh KRTAP10-2 (11738614_at) / RFU ARHGAP8 /// PRR5-ARHGAP8 (11727945_x_at) / Fold change /veh ARHGAP8 /// PRR5-ARHGAP8 (11727945_x_at) / RFU KRTAP5-7 /// NADSYN1 (11734609_at) / Fold change /veh KRTAP5-7 /// NADSYN1 (11734609_at) / RFU RASL12 (11751679_a_at) / Fold change /veh RASL12 (11751679_a_at) / RFU CDKN2B (11736163_a_at) / Fold change /veh CDKN2B (11736163_a_at) / RFU PRF1 (11729649_at) / Fold change /veh PRF1 (11729649_at) / RFU, ZNF638 /// ZNF638-IT1 / Fold change vs veh, ZNF638 /// ZNF638-IT1 / RFU, PANK3 / Fold change vs veh, PANK3 / RFU, SH3YL1 / Fold change vs veh, SH3YL1 / RFU, ZEB2 / Fold change vs veh, ZEB2 / RFU, NRIP1 / Fold change vs veh, NRIP1 / RFU, PTTG1IP / Fold change vs veh, PTTG1IP / RFU, CAPN2 / Fold change vs veh, CAPN2 / RFU, MED14 / Fold change vs veh, MED14 / RFU, SNORA58 / Fold change vs veh, SNORA58 / RFU, C1orf63 / Fold change vs veh, C1orf63 / RFU, LRRFIP1 / Fold change vs veh, LRRFIP1 / RFU, NDUFAF7 / Fold change vs veh, NDUFAF7 / RFU, SLC12A2 / Fold change vs veh, SLC12A2 / RFU, IBTK / Fold change vs veh, IBTK / RFU, ESF1 / Fold change vs veh, ESF1 / Fold change vs veh, TMEM50B / RFU, TAOK1 / Fold change vs veh, TAOK1 / RFU, ACBD3 / Fold change vs veh, ACBD3 / RFU, TMA16 / Fold change vs veh, TMA16 / RFU, RWDD3 / Fold change vs veh, RWDD3 / RFU, BCAT1 / Fold change vs veh, BCAT1 / RFU, EDEM3 / Fold change vs veh, EDEM3 / RFU, TMEM33 / Fold change vs veh, TMEM33 / RFU, WDR75 / Fold change vs veh, WDR75 / RFU, AHCTF1 / Fold change vs veh, AHCTF1 / RFU, TFRC / Fold change vs veh, TFRC / RFU, ZDHHC17 / Fold change vs veh, ZDHHC17 / RFU, NOM1 / Fold change vs veh, NOM1 / RFU, ARL8B / Fold change vs veh, ARL8B / RFU, ZBTB11 / Fold change vs veh, ZBTB11 / RFU, TAMM41 / Fold change vs veh, TAMM41 / RFU, KIAA1704 /// LOC100996395 / Fold change vs veh, KIAA1704 /// LOC100996395 / RFU, ING1 / Fold change vs veh, ING1 / RFU, TRMT61B / Fold change vs veh, TRMT61B / RFU, FUBP3 / Fold change vs veh, FUBP3 / RFU, TP53 / Fold change vs veh, TP53 / RFU, TNKS2 / Fold change vs veh, TNKS2 / RFU, ZFP14 / Fold change vs veh, ZFP14 / RFU, ACTR2 / Fold change vs veh, ACTR2 / RFU, PPP3R1 / Fold change vs veh, PPP3R1 / RFU, PIK3R1 / Fold change vs veh, PIK3R1 / RFU, HNRNPA1 / Fold change vs veh, HNRNPA1 / RFU, RNF170 / Fold change vs veh, RNF170 / RFU, ZNF28 / Fold change vs veh, ZNF28 / RFU, RNGTT / Fold change vs veh, RNGTT / RFU, OGT / Fold change vs veh, OGT / RFU, BRD1 / Fold change vs veh, BRD1 / RFU, MARS / Fold change vs veh, MARS / RFU, ZNF655 / Fold change vs veh, ZNF655 / RFU, FAHD1 / Fold change vs veh, FAHD1 / RFU, BDP1 / Fold change vs veh, BDP1 / RFU, LRRCC1 / Fold change vs veh, LRRCC1 / RFU, ARID1A / Fold change vs veh, ARID1A / RFU, ZNF146 / Fold change vs veh, ZNF146 / RFU, ZNF330 / Fold change vs veh, ZNF330 / RFU, GPN3 / Fold change vs veh, GPN3 / RFU, C9orf123 / Fold change vs veh, C9orf123 / RFU, N4BP2L2 / Fold change vs veh, N4BP2L2 / RFU, ARFIP1 / Fold change vs veh, ARFIP1 / RFU, FAM179B / Fold change vs veh, FAM179B / RFU, BCL10 / Fold change vs veh, BCL10 / RFU, UHRF1BP1L / Fold change vs veh, UHRF1BP1L / RFU, BET1 / Fold change vs veh, BET1 / RFU, CNOT2 / Fold change vs veh, CNOT2 / RFU, ZNF268 / Fold change vs veh, ZNF268 / Fold change vs veh, ZNF507 / RFU, DGCR2 / Fold change vs veh, DGCR2 / RFU, WDSUB1 / Fold change vs veh, WDSUB1 / Fold change vs veh, HSP90B1 /// MIR3652 / RFU, ADSS / Fold change vs veh, ADSS / RFU, GK / Fold change vs veh, GK / RFU, ZNF148 / Fold change vs veh, ZNF148 / RFU, TAF9 / Fold change vs veh, TAF9 / RFU, SLC1A5 / Fold change vs veh, SLC1A5 / RFU, SLMO2 / Fold change vs veh, SLMO2 / RFU, ABCC4 / Fold change vs veh, ABCC4 / RFU, LOC101060439 /// RAP1B / Fold change vs veh, LOC101060439 /// RAP1B / RFU, RFX7 / Fold change vs veh, RFX7 / RFU, GTPBP10 / Fold change vs veh, GTPBP10 / RFU, CNEP1R1 / Fold change vs veh, CNEP1R1 / RFU, BIVM-ERCC5 /// ERCC5 / Fold change vs veh, BIVM-ERCC5 /// ERCC5 / RFU, ILF3 / Fold change vs veh, ILF3 / RFU 11762660_at / Fold change /veh 11762660_at / RFU VCAN (11757783_s_at) / Fold change /veh VCAN (11757783_s_at) / RFU DDX43 (11728927_at) / Fold change /veh DDX43 (11728927_at) / RFU KRT8 (11758188_x_at) / Fold change /veh KRT8 (11758188_x_at) / RFU NKD1 (11759106_at) / Fold change /veh NKD1 (11759106_at) / RFU SRD5A1 (11742802_a_at) / Fold change /veh SRD5A1 (11742802_a_at) / RFU TPSAB1 /// TPSB2 (11721975_s_at) / Fold change /veh TPSAB1 /// TPSB2 (11721975_s_at) / RFU GSTM3 (11746129_a_at) / Fold change /veh GSTM3 (11746129_a_at) / RFU IL23R (11737362_x_at) / Fold change /veh IL23R (11737362_x_at) / RFU TMEM51 (11727254_a_at) / Fold change /veh TMEM51 (11727254_a_at) / RFU PIWIL2 (11732686_x_at) / Fold change /veh PIWIL2 (11732686_x_at) / RFU ORM1 (11744905_x_at) / Fold change /veh ORM1 (11744905_x_at) / RFU CCDC152 (11743942_at) / Fold change /veh CCDC152 (11743942_at) / RFU ECM1 (11717891_a_at) / Fold change /veh ECM1 (11717891_a_at) / RFU IL23R (11748794_a_at) / Fold change /veh IL23R (11748794_a_at) / RFU TNFAIP8L3 (11732012_x_at) / Fold change /veh TNFAIP8L3 (11732012_x_at) / RFU MBOAT4 (11741988_at) / Fold change /veh MBOAT4 (11741988_at) / RFU 11764193_at / Fold change /veh 11764193_at / RFU TMEM53 (11763286_at) / Fold change /veh TMEM53 (11763286_at) / RFU MAGEB2 (11727129_at) / Fold change /veh MAGEB2 (11727129_at) / RFU TMEM200A (11744735_a_at) / Fold change /veh TMEM200A (11744735_a_at) / RFU CCDC152 (11751479_a_at) / Fold change /veh CCDC152 (11751479_a_at) / RFU FAM211A (11726209_a_at) / Fold change /veh FAM211A (11726209_a_at) / RFU RGS16 (11746705_a_at) / Fold change /veh RGS16 (11746705_a_at) / RFU VCAN (11755009_s_at) / Fold change /veh VCAN (11755009_s_at) / RFU RHOB (11743442_s_at) / Fold change /veh RHOB (11743442_s_at) / RFU RGS16 (11720943_a_at) / Fold change /veh RGS16 (11720943_a_at) / RFU RGS16 (11720944_at) / Fold change /veh RGS16 (11720944_at) / RFU, VPS4B / Fold change vs veh, VPS4B / RFU, CREB1 / Fold change vs veh, CREB1 / RFU, DNAJC13 / Fold change vs veh, DNAJC13 / RFU, GNAQ / Fold change vs veh, GNAQ / RFU, CDK5R1 / Fold change vs veh, CDK5R1 / RFU, ZRANB3 / Fold change vs veh, ZRANB3 / RFU, CUL4A / Fold change vs veh, CUL4A / RFU, CCNY / Fold change vs veh, CCNY / RFU, UFL1 / Fold change vs veh, UFL1 / RFU, COG3 / Fold change vs veh, COG3 / RFU, DIAPH2 / Fold change vs veh, DIAPH2 / RFU, SKA2 / Fold change vs veh, SKA2 / RFU, AFF3 / Fold change vs veh, AFF3 / RFU, LMF1 / Fold change vs veh, LMF1 / RFU, IPO11 / Fold change vs veh, IPO11 / RFU, DFFB / Fold change vs veh, DFFB / RFU, FOXP1 / Fold change vs veh, FOXP1 / RFU, CARD8 / Fold change vs veh, CARD8 / RFU, STRN3 / Fold change vs veh, STRN3 / RFU, ADK / Fold change vs veh, ADK / RFU, RASSF2 / Fold change vs veh, RASSF2 / RFU, WIPF1 / Fold change vs veh, WIPF1 / RFU, LARP1B / Fold change vs veh, LARP1B / RFU, RASA1 / Fold change vs veh, RASA1 / RFU, RB1 / Fold change vs veh, RB1 / RFU, PPFIA1 / Fold change vs veh, PPFIA1 / RFU, MAT2A / Fold change vs veh, MAT2A / RFU, CCT5 / Fold change vs veh, CCT5 / RFU, WDR92 / Fold change vs veh, WDR92 / RFU, CUX1 / Fold change vs veh, CUX1 / RFU, TTC7A / Fold change vs veh, TTC7A / RFU, TMEM135 / Fold change vs veh, TMEM135 / RFU, DEPTOR / Fold change vs veh, DEPTOR / RFU, CPM / Fold change vs veh, CPM / RFU, DNAJB6 / Fold change vs veh, DNAJB6 / RFU, CACNA2D3 / Fold change vs veh, CACNA2D3 / RFU, DTX4 / Fold change vs veh, DTX4 / RFU, TFCP2 / Fold change vs veh, TFCP2 / RFU, GMCL1 /// GMCL1P1 / Fold change vs veh, GMCL1 /// GMCL1P1 / RFU, AEBP2 / Fold change vs veh, AEBP2 / RFU, SNHG1 /// SNORD22 /// SNORD25 /// SNORD26 /// SNORD27 /// SNORD28 /// SNORD29 /// SNORD31 / Fold change vs veh, SNHG1 /// SNORD22 /// SNORD25 /// SNORD26 /// SNORD27 /// SNORD28 /// SNORD29 /// SNORD31 / Fold change (Aza/veh), C12orf56 (ProbeSet 11735607_a_at) / Fold change (ACY-1035/veh), C12orf56 (ProbeSet 11735607_a_at) / Fold change (Aza/veh), FGFR1OP (ProbeSet 11751329_s_at) / Fold change (ACY-1035/veh), FGFR1OP (ProbeSet 11751329_s_at) / Fold change (Aza/veh), VPS36 (ProbeSet 11739960_a_at) / Fold change (ACY-1035/veh), VPS36 (ProbeSet 11739960_a_at) / RFU SYPL1 (11715823_x_at) / Fold change /veh SYPL1 (11715823_x_at) / RFU IGFBP7 (11715501_s_at) / Fold change /veh IGFBP7 (11715501_s_at) / RFU REEP3 (11722064_at) / Fold change /veh REEP3 (11722064_at) / RFU IGLL1 (11728026_x_at) / Fold change /veh IGLL1 (11728026_x_at): dose or concentration left out as unconfirmed. The note with it: MV-4-11 cells, 48 hours.

Consider `Nc1ncn([C@@H]2O[C@H](CO)[C@@H](O)[C@H]2O)c(=O)n1` [azacitidine], for which the “Fold change /veh OLFML3 (11715873_a_at)” value was 0.98.
